Columns and labels:
[1] = Aqueous solubility (salt screen); conditions: target 10 mg/ml at 25° C. unbuffered
[2] = cited from earlier work
[3] = test system: CD-1 mice; test: Formalin test; type: in vivo, mouse; conditions: positive control, 5 mg/kg s.c.
Experimental: Subjects (adult male CD-1 mice (Charles River, Raleigh, N.C.) weighing approximately 20-25 grams) were removed from their home cage and weighed, then placed in a clear Plexiglas™ observation box for an acclimation period of 20-30 minutes. Mice were then removed from the observation chambers and (2S,3R)—N-2-((3-pyridinyl)methyl)-1-azabicyclo[2.2.2]oct-3-yl)-3,5-difluorobenzamide (as the hydrochloride salt in 0.9% saline) (1, 3 or 10 mg/kg s.c. (calculated with respect to the free base)), morphine (5 mg/kg; s.c.) or 0.9% saline vehicle was administered subcutaneously in a volume of 1 mL/kg. Mice were then returned to the chamber for the predetermined pretreatment time of 30 minutes for (2S,3R)—N-2-((3-pyridinyl)methyl)-1-azabicyclo[2.2.2]oct-3-yl)-3,5-difluorobenzamide and morphine.
The subject's assigned paw was grasped gently and formalin solution was injected into the paw intra-dermally in the middle on the dorsal side. Once injected, the subject was immediately returned to its observation chamber and a timer was started to mark the beginning of Phase I. Each subject was videotaped for the entire 40-minute session. […] The time spent licking during that 1 min interval was recorded, and the presence or absence of paw favoring was noted.
For data analyses, phase I of the test was defined as 0 to 5 minutes after formalin injection, and phase II was defined as 20 to 40 minutes after formalin injection. The time spent licking during the 1 minute intervals during those time frames was recorded and graphed as mean±S.E.M. For comparisons across treatment groups, 1-way analyses of variance (ANOVAs) were performed for each phase of the session with treatment as the […] variable. Post-hoc analyses were performed when appropriate to determine specific group differences.

[4] = test system: Sprague-Dawley rats; test: Complete Freund's adjuvant (CFA)-induced thermal hyperalgesia; type: in vivo, rat; conditions: reference standard, 3 mg/kg s.c., 1 hour after dosing
Source text: Briefly, adult male Sprague-Dawley rats (BioLasco, Taiwan) weighing 180±20 g on receipt were randomly assigned to treatment groups of n=8 per group. […] A subject was placed within a plastic box atop an elevated glass floor and a light beam located under the glass floor was directed at the plantar surface of the right hind paw. The time required for the animal to withdraw the paw from the thermal stimulus was automatically recorded. The intensity of the light was adjusted to evoke an average group baseline latency from 12-14 seconds (pre-CFA) and a cut-off latency of 20 seconds was imposed. The latency for paw withdrawal was obtained for each rat and defined as the heat pain threshold.
Test substance, morphine and vehicle were administered by subcutaneous (s.c.) injection at time 0. The post-treatment level of thermal hyperalgesia was then measured at 60 minutes post-treatment. One-way ANOVA followed by Dunnett's test was applied for comparison between test substance treated groups and vehicle control group. Activity was considered significant at the P<0.05 level.

[5] = test system: db/db mouse; test: Murine model of type 2 diabetes mellitus (db/db mouse); type: in vivo; conditions: MLA 3 mg/kg daily by gavage with 1.0 mg/kg test article
Source text: The db/db mouse, a well established model of type 2 diabetes mellitus, is a leptin-deficient mutant that expresses an obese phenotype and also commonly expresses metabolic symptoms including hyperglycemia, hyperlipidemia and hyperinsulinemia (Halaas et al., 1995 and Lee et al., 1996). This experimental animal model of diabetes was employed in a study designed to determine the effects of (2S,3R)—N-2-((3-pyridinyl)methyl)-1-azabicyclo[2.2.2]oct-3-yl)-3,5-difluorobenzamide on body mass and several additional metabolic parameters.
In this study, (2S,3R)—N-2-((3-pyridinyl)methyl)-1-azabicyclo[2.2.2]oct-3-yl)-3,5-difluorobenzamide was repeatedly administered orally (via gavage) at 1.0 mg/kg once daily starting from the age of approximately 3 weeks and continuing throughout the 7-week study. Nondiabetic heterozygote littermate mice (db/+; designated “Db”) were used as controls. Body weight and food intake were determined twice weekly. The α7 antagonist methyllycaconitine (MLA) was also given concurrently via gavage at 3 mg/kg daily to selected cohorts of db/db (designated “db”) or db/+mice. At the end of the 7-week dosing regimen, total growth rates (overall body weight gain) and average daily food intake were calculated. In addition, glucose levels were assessed in mice fasted overnight. Furthermore, blood sample analytes from mice fasted overnight were collected for measurements of tumor necrosis factor-a (TNF-α), triglycerides and glycosylated hemoglobin (HbA1c). All data are expressed as mean±SEM. For each parameter investigated, differences among all groups were compared by one-way ANOVA with post-hoc Neuman-Keuls multiple comparison test.

[6] = test system: STZ rat model of diabetic neuropathy; test: Streptozotocin (STZ)-induced diabetic neuropathy, Von Frey allodynia; type: in vivo; conditions: 150 mg/kg i.p.
Experimental: Diabetes was induced by a 0.5 ml injection of streptozotocin (60 mg/kg) dissolved in citrate buffer (pH=6) into the tail vein of each rat. The development of diabetes was confirmed by measuring the blood glucose levels (BGL) of all animals on study day 3 (BGL>300 mg/dL). […] These animals were tested again for their BGL at study day 23.
(2S,3R)—N-2-((3-pyridinyl)methyl)-1-azabicyclo[2.2.2]oct-3-yl)-3,5-difluorobenzamide (0.1, 1 or 10 mg/kg p.o.) was administered as a solution of the hydrochloride salt in water once daily starting on study day 14 or study day 16 and continuing through study day 21 or 23, respectively. The control article gabapentin (in 0.9% saline, 150 mg/kg i.p.) was only administered on allodynia test days. Test item, vehicle or control article administration was based on evaluation of allodynia on study day 14. If allodynia was not present on study day 14, the animal was evaluated again at study day 16. Pain response was measured either on study days 14 and 21 or 16 and 23, 30 minutes after Test Item administration.
For the allodynia assessments, Von Frey filaments were used according to the methods of Chaplan and colleagues (1994). Briefly, the rats were placed in an enclosure and positioned on a metal mesh surface, but allowed to move freely. The rats' cabins were covered with red cellophane to diminish environmental distributions. The test began after cessation of exploratory behavior.
When the tip of a Von Frey fiber of given length and diameter was pressed against the skin at right angles, the force of application increases as long as the researcher continued to advance the probe until the fiber bent. After the fiber bent, the probe was advanced, causing the fiber to bend more, but without additional force being applied. The animal would indicate sensation by pulling back its paw. In the absence of a paw withdrawal response to the initially selected filament, a stronger stimulus was presented: in the event of paw withdrawal, the next weaker stimulus was chosen. In this fashion, the resulting pattern of positive and negative responses was used to determine the paw withdrawal threshold.
The set of Von Frey monofilaments provide an approximate logarithmic scale of actual force and a linear scale of perceived intensity. Below is a table showing the force (g) and its corresponding size of monofilaments.
All normally distributed data are presented as means±SEM, as well as the animals' individual values followed by a student T-test (Software: Microsoft® Excel). A p value<0.05 is considered to represent a significant difference. Due to the non-normal distribution of the allodynia data, descriptions of those data are provided as both mean (+SEM) and median values in order to represent their imprecise nature and skewed distribution.

O=C(N[C@@H]1C2CCN(CC2)[C@H]1Cc1cccnc1)c1cc(F)cc(F)c1.O=P(O)(O)O [Phosphate mono salts]
Aqueous Solubility [1]: >10000 µg/mL

CCC(=O)O [Propionic acid]
LogP [2]: 0.25

Cc1ccc(S(=O)(=O)O)cc1 [p-Toluene sulfonic acid]
LogP [2]: 0.93

N[C@@H](CC(=O)O)C(=O)O [L-Aspartic acid]
LogP [2]: −0.67

O=C(O)[C@H](O)[C@@H](O)[C@H](O)[C@H](O)CO [D-Gluconic acid]
LogP [2]: −3.18

CN1CC[C@]23c4c5ccc(O)c4O[C@H]2[C@@H](O)C=C[C@H]3[C@H]1C5 [morphine, reference compound]
Time spent licking, phase I and phase II [3]: efficacious in both phases of the test
Analgesic effect on CFA-induced thermal hyperalgesia [4]: significant analgesic activity

CCN1C[C@]2(COC(=O)c3ccccc3N3C(=O)C[C@H](C)C3=O)CC[C@H](OC)[C@@]34[C@@H]5C[C@H]6[C@H](OC)[C@@H]5[C@](O)(C[C@@H]6OC)[C@@](O)([C@@H](OC)[C@H]23)[C@@H]14 [MLA, methyllycaconitine, reference compound]
Weight gain on co-administration of MLA with the difluorobenzamide ([5]; FIG. 15): failed to show the reduced weight gain
Daily average food consumption on co-administration of MLA with the difluorobenzamide ([5]; FIG. 16): failed to show the reduced daily average food consumption
Reversal of the fasting plasma glucose effect by co-administration of MLA ([5]; FIG. 17): not reversed
Effect of MLA co-administration on the reduction in glycosylated HbA1c ([5]; FIG. 18): attenuated
Effect of MLA co-administration on the TNF alpha reduction ([5]; FIG. 19): inhibited
Effect of MLA co-administration on the reduction in triglycerides ([5]; FIG. 20): not attenuated

O=C(N[C@@H]1C2CCN(CC2)[C@H]1Cc1cccnc1)c1cc(F)cc(F)c1.O=C(O)/C=C/C(=O)O [Fumarate mono salt]
Aqueous Solubility [1]: >10000 µg/mL

Cl.O=C(N[C@@H]1C2CCN(CC2)[C@H]1Cc1cccnc1)c1cc(F)cc(F)c1 [Hydrochloride mono salts]
Aqueous Solubility [1]: >10000 µg/mL

O=C(O)/C=C\C(=O)O [Maleic acid]
LogP [2]: −0.01

O=C(O)c1ccc2ccccc2c1O [1-Hydroxy-2-Naphthoic acid]
LogP [2]: 3.29

NCC1(CC(=O)O)CCCCC1 [gabapentin, reference compound]
Paw withdrawal force post treatment, median ([6]; study days 14/16): 60 g
Paw withdrawal force post treatment, mean±SEM ([6]; study days 14/16, pre treatment 22.77±3.77 g, vehicle 26.61±4.41 g): 45.62 ± 4.24 g
Paw withdrawal force post treatment, median ([6]; study days 21/23): 60 g
Paw withdrawal force post treatment, mean±SEM ([6]; study days 21/23, pre treatment 28.23±4.91 g, vehicle 20.46±3.31 g): 50.88 ± 4.12 g
Tactile allodynia (Von Frey) ([6]; positive control, all treatment days, vs pretreatment and vehicle, p<0.01): reversed the tactile allodynia significantly

O=C(O)CNC(=O)c1ccccc1 [Hippuric acid]
LogP [2]: 0.31

O=C(O)/C=C/C(=O)O [Fumaric acid]
LogP [2]: −0.01

O=S(=O)(O)c1ccccc1 [Benzene sulfonic acid]
LogP [2]: 0.47

Source: patent publication US9173876B2, “Preparation and therapeutic applications of (2S,3R)-N-2-((3-pyridinyl)methyl)-1-azabicyclo[2.2.2]oct-3-yl)-3,5-difluorobenzamide” (Targacept, Inc., priority 2009, dated 2015)
